Measurements taken from ChEMBL document CHEMBL1142047, “Identification of a 5-HT4 receptor antagonist clinical candidate through side-chain modification” (Bioorg Med Chem Lett, 2005).

Assays:
[1] = in vivo; conditions: dog, plasma, iv, 0.25 mg/kg
[2] = Time taken for half of the concentration to degrade upon intravenous administration (n=7; dose 0.25 mg/kg iv); conditions: dog, in vivo
[3] = (§1) Bioavailability in dog (dose 0.25 mg/kg i.v. and 0.5 mg/kg p.o.); conditions: in vivo, po
[4] = Volume of distribution in dog (n=7; dose 0.25 mg/kg iv or 0.5 mg/kg po); conditions: in vivo
[5] = target: 5-hydroxytryptamine receptor 4 (Homo sapiens, UniProt Q13639); test: Inhibitory constant for human cloned 5-HT4 receptor
[6] = Time taken for half of the concentration to degrade upon oral administration; format: ADME, organism-based, Canis lupus familiaris; conditions: dog, in vivo
[7] = Time taken for half of the concentration to degrade upon oral administration (n=7; 0.5 mg/kg po); format: ADME, organism-based, Canis lupus familiaris; parameters: dose 0.5 mg/kg, route oral; conditions: dog, in vivo
[8] = target: Histamine H1 receptor (Rattus norvegicus, UniProt P31390)
[9] = Volume of distribution in dog (n=8; dose 0.25 mg/kg iv or 0.5 mg/kg po); format: ADME, organism-based, Canis lupus familiaris; conditions: in vivo, read-out: Vz
[10] = as §1; format: ADME, organism-based, Canis lupus familiaris; conditions: in vivo, po
[11] = Plasma clearance in dog (n=8; dose 0.25 mg/kg iv or 0.5 mg/kg po); format: ADME, organism-based, Canis lupus familiaris
[12] = Time taken for half of the concentration to degrade upon intravenous administration (n=8; dose 0.25 mg/kg iv); format: ADME, organism-based, Canis lupus familiaris; parameters: dose 0.25 mg/kg, route intravenous; conditions: dog, in vivo
[13] = Bioavailability in rat; format: ADME, organism-based; conditions: in vivo
[14] = Half-life in human; format: ADME
[15] = in vivo; conditions: rat
[16] = Time taken for half of the concentration to degrade upon intravenous administration (n=12; dose 0.25 mg/kg iv); conditions: dog, in vivo
[17] = Volume of distribution in dog (n=12; dose 0.25 mg/kg iv or 0.5 mg/kg po); conditions: in vivo
[18] = in vivo; conditions: dog, plasma, iv, 0.25 mg/kg; remark: listed apart in the source
[19] = Intrinsic clearance of compound in human liver microsomes
[20] = Percentage bioavailability (n=12; dose 0.25 mg/kg iv or 0.5 mg/kg po); format: ADME, organism-based, Canis lupus familiaris; conditions: dog, in vivo
[21] = Intrinsic clearance of compound in dog liver microsomes

Sequence of 5-hydroxytryptamine receptor 4 (Q13639 whole entry): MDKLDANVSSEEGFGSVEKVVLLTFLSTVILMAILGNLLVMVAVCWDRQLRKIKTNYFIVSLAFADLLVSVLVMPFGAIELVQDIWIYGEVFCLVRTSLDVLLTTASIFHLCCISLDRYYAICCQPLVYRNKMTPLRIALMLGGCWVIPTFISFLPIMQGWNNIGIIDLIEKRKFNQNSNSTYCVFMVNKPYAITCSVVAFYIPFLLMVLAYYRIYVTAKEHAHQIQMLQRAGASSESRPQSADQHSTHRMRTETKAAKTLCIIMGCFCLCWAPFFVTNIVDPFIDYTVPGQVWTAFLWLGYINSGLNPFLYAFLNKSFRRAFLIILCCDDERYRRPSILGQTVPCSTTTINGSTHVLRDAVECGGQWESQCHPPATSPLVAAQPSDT
Sequence of Histamine H1 receptor (P31390 whole entry): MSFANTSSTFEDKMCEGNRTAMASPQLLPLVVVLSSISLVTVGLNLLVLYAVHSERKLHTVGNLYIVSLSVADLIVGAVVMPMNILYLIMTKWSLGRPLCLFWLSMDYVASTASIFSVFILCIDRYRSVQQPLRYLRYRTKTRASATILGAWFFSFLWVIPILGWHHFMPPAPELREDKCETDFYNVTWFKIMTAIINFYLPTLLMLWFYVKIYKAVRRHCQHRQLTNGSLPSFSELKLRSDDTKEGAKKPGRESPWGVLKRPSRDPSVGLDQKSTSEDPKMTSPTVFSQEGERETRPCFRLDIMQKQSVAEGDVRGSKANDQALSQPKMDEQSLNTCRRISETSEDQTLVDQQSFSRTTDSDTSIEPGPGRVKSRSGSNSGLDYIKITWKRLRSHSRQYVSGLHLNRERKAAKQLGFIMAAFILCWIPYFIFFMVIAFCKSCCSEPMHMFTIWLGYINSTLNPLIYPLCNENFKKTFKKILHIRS

Row | SMILES | half-life [2] | bioavailability [3] | Vd [4] | Ki [5] | further results
1 | CC1(C)CCN(S(=O)(=O)CCCN2CCC(CNC(=O)c3cccc4c3OCCO4)CC2)CC1 | 0.7 h | 100% | 1.5 L/kg | 126 pM | clearance [1]: 27 mL/min/kg
2 | CC(=O)N1CCN(S(=O)(=O)CCCN2CCC(CNC(=O)c3cccc4c3OCCO4)CC2)CC1 | 1.3 h | 51% | 0.7 L/kg | 126 pM | clearance [1]: 6 mL/min/kg; half-life [6]: 4.6 h
3 | CS(=O)(=O)N1CCN(S(=O)(=O)CCCN2CCC(CNC(=O)c3cccc4c3OCCO4)CC2)CC1 | 1.2 h | 90% | 0.3 L/kg | 316 pM | half-life [7]: 3.6 h
4 | CC(C)S(=O)(=O)N1CCN(S(=O)(=O)CCCN2CCC(CNC(=O)c3cccc4c3OCCO4)CC2)CC1 | – | – | – | 126 pM | –
5 | CCCC1CCN(S(=O)(=O)CCCN2CCC(CNC(=O)c3cccc4c3OCCO4)CC2)CC1 | 0.5 h | 15% | 1.4 L/kg | 63.1 pM | clearance [1]: 33 mL/min/kg
6 | CN1CCN(S(=O)(=O)CCCN2CCC(CNC(=O)c3cccc4c3OCCO4)CC2)CC1 | – | – | – | 251 pM | IC50 [8]: 100000 pM
7 | O=C(NCC1CCN(CCCS(=O)(=O)N2CCNCC2)CC1)c1cccc2c1OCCO2 | – | – | – | 158 pM | Vd [9]: 34 L/kg; bioavailability [10]: 33%; clearance [11]: 11 mL/min/kg; half-life [12]: 37 h
8 | O=C(NCC1CCN(CCCS(=O)(=O)N2CCN(C(=O)c3ccco3)CC2)CC1)c1cccc2c1OCCO2 | – | – | – | 100 pM | Vd [9]: 0.2 L/kg; bioavailability [10]: 64%; clearance [11]: 2 mL/min/kg; half-life [12]: 1 h
9 | O=C(NCC1CCN(CCCS(=O)(=O)N2CCN(Cc3cccnc3)CC2)CC1)c1cccc2c1OCCO2 | – | – | – | 158 pM | –
10 | O=C(NCC1CCN(CCCS(=O)(=O)N2CCCCC2)CC1)c1cccc2c1OCCO2 | – | – | – | 200 pM | –
11 | CCCCN1CCC(CNC(=O)c2cccc3c2OCCO3)CC1 | – | – | – | 794 pM | bioavailability [13]: 18%; half-life [14]: 60 h; half-life [15]: < 1 h
12 | CCCS(=O)(=O)N1CCN(S(=O)(=O)CCCN2CCC(CNC(=O)c3cccc4c3OCCO4)CC2)CC1 | 0.7 h | 82% | 0.7 L/kg | 100 pM | clearance [1]: 12 mL/min/kg
13 | O=C(NCC1CCN(CCCS(=O)(=O)N2CCN(S(=O)(=O)N3CCCC3)CC2)CC1)c1cccc2c1OCCO2 | – | – | – | 79.4 pM | –
14 | O=C(NCC1CCN(CCCS(=O)(=O)N2CCN(c3ncccn3)CC2)CC1)c1cccc2c1OCCO2 | 0.7 h | 65% | 0.3 L/kg | 251 pM | clearance [1]: 5 mL/min/kg
15 | O=C(NCC1CCN(CCCS(=O)(=O)N2CCOCC2)CC1)c1cccc2c1OCCO2 | – | 76% | – | 398 pM | half-life [16]: 1 h; Vd [17]: 1.6 L/kg; clearance [18]: 7 mL/min/kg
16 | CCCCN1CCC(CNC(=O)c2c3n(c4ccccc24)CCCO3)CC1 [PIBOSEROD] | – | – | – | 251 pM | microsomal CLint [19]: 5 µL/min/mg; half-life [16]: 7.1 h; Vd [17]: 5 L/kg; bioavailability [20]: 71%; clearance [18]: 8 mL/min/kg; microsomal CLint [21]: 4 µL/min/mg

Stronger by Ki [5], values ahead:

Row | half-life [2] | bioavailability [3] | Vd [4] | Ki [5] | SMILES | further results
17 | – | – | – | 50.1 pM | O=C(NCC1CCN(CCCS(=O)(=O)N2CCN(c3ccc(F)cc3)CC2)CC1)c1cccc2c1OCCO2 | –
18 | – | – | – | 15.8 pM | O=C(NCC1CCN(CCCS(=O)(=O)N2CCN(C3CCCC3)CC2)CC1)c1cccc2c1OCCO2 | Vd [9]: 9.3 L/kg; bioavailability [10]: 42%; clearance [11]: 37 mL/min/kg; half-life [12]: 2.9 h
19 | – | – | – | 31.6 pM | CCCN1CCN(S(=O)(=O)CCCN2CCC(CNC(=O)c3cccc4c3OCCO4)CC2)CC1 | –
20 | – | – | – | 25.1 pM | CCC(C)N1CCN(S(=O)(=O)CCCN2CCC(CNC(=O)c3cccc4c3OCCO4)CC2)CC1 (configuration not stated) | –
21 | 3 h | 72% | 3.6 L/kg | 31.6 pM | CC(C)N1CCN(S(=O)(=O)CCCN2CCC(CNC(=O)c3cccc4c3OCCO4)CC2)CC1 | clearance [1]: 14 mL/min/kg
22 | – | – | – | 25.1 pM | O=C(NCC1CCN(CCCS(=O)(=O)N2CCC3(CCCC3)CC2)CC1)c1cccc2c1OCCO2 | –
23 | – | – | – | 31.6 pM | O=C(NCC1CCN(CCCS(=O)(=O)N2CCN(S(=O)(=O)c3ccc(F)cc3)CC2)CC1)c1cccc2c1OCCO2 | –
24 | 3.1 h | 94% | 3.6 L/kg | 50.1 pM | CCN1CCN(S(=O)(=O)CCCN2CCC(CNC(=O)c3cccc4c3OCCO4)CC2)CC1 | –
